Measured values from article PMC10051477, “5,8-Dimethyl-9H-carbazole Derivatives Blocking hTopo I Activity and Actin Dynamics” (Pharmaceuticals, 2023).

Tests used:
[1] = target: T1, labeled rabbit muscle actin (Oryctolagus cuniculus, UniProt P68135); assay: In vitro actin polymerization assay; type: biochemical; settings: 5 µM, 1 h, room temperature; vehicle plateau about 25,000 RFU
T1 construct: fluorescent label (chemical); purchased Abcam; host or cells: rabbit muscle
From the text: With the aim to confirm the immunofluorescence results and substantiate whether compounds 3 and 4 could inhibit the actin polymerization mechanism and/or boost the F-actin depolymerization, we employed a fluorescent-labeled purified rabbit actin. LA and cytochalasin B (CB) were used as positive controls for both the polymerization inhibition and F-actin subunits dissociation, or only the polymerization inhibition, respectively. In the negative control reaction (only vehicle), actin monomers undergo a normal polymerization, as visible in Figure 5, panel A. The reaction curve rises in approximately 5 min to a value of about 25,000 RFU (plateau) which remains almost unvaried until the end of the experiment. Contrariwise, the two reference molecules, i.e., LA and CB, used at the concentration of 5 µM, braked the actin polymerization, mostly LA rather than CB, under the adopted experimental conditions, and the LA curve dropped until a value of about 8000 RFU at the reaction end.
(§1) An Actin Polymerization/Depolymerization Assay Kit, purchased from Abcam, was employed to assess the ability of compounds 3 and 4 to interfere with the actin polymerization and depolymerization processes. To perform the essays, the manufacturer’s instructions were followed with some modifications. In particular, polymerization assay was carried out incubating in a white 96-well plate the reconstituted actin with supplemented Buffer G, compounds 3 and 4 and then Buffer P was added in order to induce actin polymerization. For the Actin Depolymerization Assay, the actin polymerization was first induced, incubating supplemented Buffers P and G at room temperature for one hour. Then, compounds 3 and 4 were added at a concentration of 5 μM. Latrunculin A (LA) and Cytochalasin B (CB) were utilized as positive control at a concentration of 5 μM. For both the assays, the assemblage of the actin filaments was defined by measuring the fluorescence (Ex/Em: 365/410 nm) in kinetic mode for 1 h at room temperature in a microplate reader.

[2] = target: T2, F-actin (labeled rabbit muscle actin) (Oryctolagus cuniculus, UniProt P68135); assay: In vitro F-actin depolymerization assay; type: biochemical; settings: 5 µM added after 1 h polymerization
T2 construct: fluorescent label (chemical); purchased Abcam; host or cells: rabbit muscle
Experimental: Moreover, we performed the F-actin depolymerization assay to verify whether compounds 3 and 4 could induce the actin depolymerization as well as the LA does (Figure 5, panel B). For this purpose, we started the actin polymerization for one hour under the same experimental conditions used previously. Then, we added the compounds or the reference molecules at the concentration of 5 µM and monitored the reactions for an additional hour. […] The addition of CB was not able to produce the same effect of LA. […] Contrarily, both the compounds were able to induce an important depolymerizing effect on the F-actin, most evident in the first 7 min after the exposure. Particularly, compounds 3 and 4 produced final values of approximately 14,000 and 12,000 RFU, respectively. […] This combined effect leads to a disorganization of the intracellular actin network.
as §1

MDA-MB-231 cells = assay: MTT assay, MDA-MB-231 cell viability; type: cell-based; settings: Homo sapiens, 72 h, mean ± standard deviation
Experimental: (§2) The inhibition of cancer cell growth exerted by the five considered compounds (1–5) has been evaluated in vitro against two models of breast cancer, namely the estrogen receptor positive (ER+) MCF-7 and the triple negative MDA-MB-231 human breast cancer cells (lacking ER, PR, and HER-2/Neu amplification), together with the normal counterpart, namely the non-malignant breast epithelial cells MCF-10A. […] Moreover, no effects were recorded against the MCF-7 cells, at least until the concentration of 100 μM. […] Thus, the two lead compounds were chosen for subsequent studies aiming at individuating the molecular mechanisms underlying the observed anticancer activity.
(§3) MTT assays (Sigma Aldrich (St.Louis, MO, USA)) were employed to evaluate the in vitro anticancer activities of all the studied compounds, as previously described. The compounds were tested at different concentrations (0.1-1-10-25-50-100 μM) for 72 h. The IC50 values were calculated from the percent (%) of control using GraphPad Prism 9 (GraphPad Software, La Jolla, CA, USA).

MCF-7 cells = assay: MTT assay, MCF-7 cell viability; type: cell-based; settings: Homo sapiens, MCF7, 72 h, mean ± standard deviation
Experimental: as §3

MCF-10A cells = assay: MTT assay, MCF-10A normal cell viability; type: cell-based, human; settings: Homo sapiens, MCF-10A, 72 h, non-malignant breast epithelial cells, mean ± standard deviation
Experimental: as §2, §3

[3] = system: actin system in MDA-MB-231 cells; assay: Actin immunofluorescence in MDA-MB-231 cells; type: cell-based, human; settings: MDA-MB-231, 24 h; compounds at their IC50 values, LA 0.1 µM
Experimental: In order to determine whether the lead compounds 3 and 4 may effectively regulate the actin system, we employed both the immunofluorescence and in vitro direct enzymatic assays. […] As negative and positive controls, we used the only vehicle (DMSO) and latrunculin A (LA) at a concentration of 0.1 µM, respectively. After processing, the cells were observed under a fluorescent microscope, (see experimental section for the details). […] Moreover, the latter looked brighter and stocked in the cytoplasm in dot-like structures or thicker fibers. Again, the MDA-MB-231 cells, under exposure to compounds 3 and 4, lost their shape (Figure 4, compounds 3 and 4, panels B), as we observed under LA treatment, and with a very similar arrangement of the actin network.
The cells were plated and further processed, as previously indicated. Specifically, the rabbit anti-β-Actin (Santa Cruz Biotechnology, Dallas, TX, USA), diluted 1:100 in bovine serum albumin (BSA) 2%, was used as primary antibody and incubated overnight at 4 °C. The secondary antibody, Alexa Fluor® 488 conjugate goat-anti-rabbit, was diluted 1:500 and incubated for 2 h at 37 °C. DAPI (4′,6-diamidino-2-phenylindole, Sigma Aldrich, Milan, Italy) 0.2 μg/mL was used for nuclei staining. A fluorescence microscope (Leica DM 6000) was utilized for fluorescence detection (40× magnification). LAS-X software allowed acquiring and processing all the fluorescence images, which are representative of three separate experiments.

SMILES	Actin polymerization, final fluorescence value of reaction curve [1]	F-actin depolymerizing effect [2]	IC50 (MDA-MB-231 cells) [µM]	IC50 (MCF-7 cells) [µM]	IC50 (MCF-10A cells) [µM]	Effect on actin organization (immunofluorescence) [3]	F-actin depolymerization, final fluorescence value of reaction curve ([2]; monitored 1 h, vehicle 20,000 RFU)
C=C1[C@@H](C)[C@H]2[C@H](Cc3ccccc3)NC(=O)[C@]23OC(=O)/C=C/[C@H](O)CCC[C@@H](C)C/C=C/[C@H]3[C@@H]1O [CB, Cytochalasin B, reference compound]	approximately 13,000 RFU	does not induce the F-actin depolymerization	–	–	–	–	–
Cc1ccc(C)c2c1c1cc(Br)ccc1n2C(=O)OC(C)(C)C [Compound 1]	–	–	43.5 ± 1.21	> 100	> 100	–	–
COc1ccc2c(c1)c1c(C)ccc(C)c1n2C(=O)OC(C)(C)C [Compound 2]	–	–	8.19 ± 0.26	> 100	89.16 ± 0.47	–	–
Cc1ccc(C)c2c1[nH]c1ccc(O)cc12 [Compound 5, 5,8-Dimethyl-9H-carbazol-3-ol]	–	–	6.59 ± 0.68	> 100	> 100	–	–
Cc1c2ccncc2c(C)c2c1[nH]c1ccccc12 [Ellipticine, reference compound]	–	–	1.92 ± 0.38	–	1.12 ± 0.51	–	–
C/C1=C/C(=O)O[C@@H]2C[C@@H](CC[C@H](C)/C=C\C=C\CC1)O[C@@](O)([C@@H]1CSC(=O)N1)C2 [LA, Latrunculin A, reference compound]	about 8000 RFU	–	–	–	–	the cells underwent an important shape change	about 8000 RFU
